In the NIST ThermoML archive (doi:10.1007/s10765-006-0079-5):

Conditions: Liquid, Pulse-echo method

CCCCCCCCC [nonane]
speed of sound [m/s]
Conditions	293.15 K	313.15 K	333.15 K	353.15 K	373.15 K	393.15 K
100 kPa	1226.4	1146.2	1068.2	992.62	922.16	–
10000 kPa	1288	1212.8	1140.9	1072.6	1005	946.87
20000 kPa	1344.8	1274.2	1206.9	1142.6	1081.3	1022.9
30000 kPa	1396.9	1329.8	1266.2	1205.6	1148.1	1093.7
40000 kPa	1445.1	1380.9	–	1262.5	1208	1156.6
50000 kPa	1490.1	1428.3	1369.8	1314.6	1262.5	1213.6
60000 kPa	1532.5	1472.7	1416.3	1363.2	1313.1	1266.1
70000 kPa	1572.5	1514.7	1460.1	1408.5	1360.1	1314.7
80000 kPa	1610.6	1554.4	1501.3	1451.3	1404.3	1360.4
90000 kPa	1646.9	1592	1540.3	1491.7	1446.1	1403.3
100000 kPa	1681.6	1628	1577.4	1529.8	1485.5	1443.7
